Broadly, the IC50 is the midpoint of a concentration-inhibition curve.

This passage reports IC50 results from patent US12391679B2, “Benzamide-substituted bicyclic imidazo- and pyrazolo-fused -pyridine, -pyrimide, and -pyridazine compounds for treatment of inflammatory diseases” (ONCO3R Therapeutics BV, priority 2019, dated 2025).

Common to all, as to assay type: biochemical
For one assay, the target named is T1, SIK1 (Homo sapiens, UniProt P57059).
T1 construct: purchased Carna Biosciences 02-131
T1 sequence (P57059 whole entry): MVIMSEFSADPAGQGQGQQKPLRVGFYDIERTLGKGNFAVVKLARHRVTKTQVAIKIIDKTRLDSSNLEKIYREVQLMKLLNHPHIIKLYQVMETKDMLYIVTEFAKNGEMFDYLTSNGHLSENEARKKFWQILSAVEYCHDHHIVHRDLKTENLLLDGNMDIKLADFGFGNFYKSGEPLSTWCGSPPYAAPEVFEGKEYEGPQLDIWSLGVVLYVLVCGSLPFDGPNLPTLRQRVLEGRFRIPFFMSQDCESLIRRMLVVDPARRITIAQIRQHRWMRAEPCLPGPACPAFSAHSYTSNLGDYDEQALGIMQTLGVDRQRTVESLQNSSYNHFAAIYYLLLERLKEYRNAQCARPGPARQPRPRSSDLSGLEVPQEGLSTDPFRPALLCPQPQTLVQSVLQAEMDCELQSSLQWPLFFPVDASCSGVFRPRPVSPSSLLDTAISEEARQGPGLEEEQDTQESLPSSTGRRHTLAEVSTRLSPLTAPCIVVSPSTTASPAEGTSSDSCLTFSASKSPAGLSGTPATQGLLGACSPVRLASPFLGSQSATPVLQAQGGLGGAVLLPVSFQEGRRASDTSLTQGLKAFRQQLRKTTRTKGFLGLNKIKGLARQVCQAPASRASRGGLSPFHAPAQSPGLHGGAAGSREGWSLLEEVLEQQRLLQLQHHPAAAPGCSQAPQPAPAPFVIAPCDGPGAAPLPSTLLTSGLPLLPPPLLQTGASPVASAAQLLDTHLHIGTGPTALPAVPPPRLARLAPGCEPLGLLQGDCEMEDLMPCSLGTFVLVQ
The assay can be described thus: ADP-Glo kinase assay, SIK1. The procedure, abridged: (§1)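 Luminescent ADP-formation read-out: enzyme–substrate mix + ATP, 120 min RT; ATP depletion 40 min RT; ADP→ATP conversion with luciferase/luciferin 30 min RT. Controls: 1% DMSO (negative), 10 μM staurosporine final (positive).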
A general note: ADP-Glo turns the ADP formed in a reaction into a luminescent signal.

The next assay concerns the target T2, SIK2 (Homo sapiens, UniProt Q9H0K1).
T2 construct: purchased ThermoFisher Scientific PV4792
The assay can be described thus: ADP-Glo kinase assay, SIK2. The procedure, abridged:
as §1

A further assay concerns the target T3, SIK3 (Homo sapiens, UniProt Q9Y2K2).
T3 construct: purchased SignalChem S12-11G-100
The assay can be described thus: ADP-Glo kinase assay, SIK3. In outline:
as §1

T2 sequence (Q9H0K1 whole entry): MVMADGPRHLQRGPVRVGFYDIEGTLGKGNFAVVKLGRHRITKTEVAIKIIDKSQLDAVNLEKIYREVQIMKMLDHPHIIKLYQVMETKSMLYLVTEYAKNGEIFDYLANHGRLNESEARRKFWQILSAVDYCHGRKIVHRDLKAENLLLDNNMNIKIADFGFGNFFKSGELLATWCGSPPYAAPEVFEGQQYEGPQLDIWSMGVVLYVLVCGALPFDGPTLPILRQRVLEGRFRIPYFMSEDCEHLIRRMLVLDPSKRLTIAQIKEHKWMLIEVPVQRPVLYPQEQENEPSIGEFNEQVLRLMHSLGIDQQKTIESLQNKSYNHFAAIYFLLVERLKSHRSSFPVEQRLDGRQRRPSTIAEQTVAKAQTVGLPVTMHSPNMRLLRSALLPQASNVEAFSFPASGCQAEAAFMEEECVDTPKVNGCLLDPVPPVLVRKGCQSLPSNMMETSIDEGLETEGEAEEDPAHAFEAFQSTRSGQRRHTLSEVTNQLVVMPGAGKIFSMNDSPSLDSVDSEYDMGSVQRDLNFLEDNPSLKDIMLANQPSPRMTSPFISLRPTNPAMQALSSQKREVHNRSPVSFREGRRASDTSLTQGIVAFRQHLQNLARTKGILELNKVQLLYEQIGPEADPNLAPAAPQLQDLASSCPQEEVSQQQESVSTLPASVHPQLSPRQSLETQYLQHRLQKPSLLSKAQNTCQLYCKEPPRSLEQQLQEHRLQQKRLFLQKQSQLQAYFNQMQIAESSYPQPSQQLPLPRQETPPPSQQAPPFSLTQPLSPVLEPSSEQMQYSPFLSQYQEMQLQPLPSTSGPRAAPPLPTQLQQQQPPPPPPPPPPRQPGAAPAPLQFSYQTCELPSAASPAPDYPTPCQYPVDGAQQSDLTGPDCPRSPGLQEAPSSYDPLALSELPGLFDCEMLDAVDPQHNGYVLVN
T3 sequence (Q9Y2K2 59-365 limits assumed): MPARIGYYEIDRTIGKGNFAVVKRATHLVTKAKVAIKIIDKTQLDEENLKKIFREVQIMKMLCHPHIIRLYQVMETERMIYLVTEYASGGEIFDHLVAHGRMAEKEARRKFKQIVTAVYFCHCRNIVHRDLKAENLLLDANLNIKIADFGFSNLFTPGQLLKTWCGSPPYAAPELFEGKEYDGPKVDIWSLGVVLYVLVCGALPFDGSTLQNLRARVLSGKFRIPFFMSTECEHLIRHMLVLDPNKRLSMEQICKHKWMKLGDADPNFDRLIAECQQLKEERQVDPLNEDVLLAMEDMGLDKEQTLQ

Turning to `COc1cc(-c2cnc3cc(C4CCCN4C(C)C)ccn23)cc(OC(F)F)c1C(=O)NC1CC1` (stereo not drawn) [Cpd 197, N-cyclopropyl-2-(difluoromethoxy)-4-[7-(1-isopropylpyrrolidin-2-yl)imidazo[1,2-a]pyridin-3-yl]-6-methoxy-benzamide], the IC50 against SIK1 is 100 to 500 nM; against SIK2 it was 10 to 100 nM; against SIK3 it was 10 to 100 nM.
As to `COc1cc(-c2cnc3cc(C4CCOCC4)ncn23)cc(OC(F)F)c1C(=O)NC1CC1` [Cpd 109, N-cyclopropyl-2-(difluoromethoxy)-6-methoxy-4-(7-tetrahydropyran-4-ylimidazo[1,2-c]pyrimidin-3-yl)benzamide], the IC50 on SIK1, on SIK2 and on SIK3 was more than 500 nM in each case.
For the compound `COc1cc(-c2cnc3cc(C4COCCN4)ccn23)cc(OC(F)F)c1C(=O)NC1CC1` (stereo not drawn) [Cpd 187, N-cyclopropyl-2-(difluoromethoxy)-6-methoxy-4-(7-morpholin-3-ylimidazo[1,2-a]pyridin-3-yl)benzamide], the IC50 was more than 500 nM against SIK1, more than 500 nM on SIK2 and 10 to 100 nM on SIK3.
With `COc1cc(-c2cnc3cc(C4(C#N)COC4)ccn23)cnc1C(=O)NCC(F)(F)F` [Cpd 125, 5-[7-(3-cyanooxetan-3-yl)imidazo[1,2-a]pyridin-3-yl]-3-methoxy-N-(2,2,2-trifluoroethyl)pyridine-2-carboxamide], the 50% inhibitory concentration (IC50) at SIK1, against SIK2 and against SIK3 was more than 500 nM each time.
As for `COc1cc(-c2cnc3cc(C(C)(C)C#N)ccn23)cc(OC(F)F)c1C(=O)N1CC(CO)C1` [Cpd 97, 2-[3-[3-(difluoromethoxy)-4-[3-(hydroxymethyl)azetidine-1-carbonyl]-5-methoxy-phenyl]imidazo[1,2-a]pyridin-7-yl]-2-methyl-propanenitrile], the IC50 on SIK1 was more than 500 nM; on SIK2, more than 500 nM; on SIK3 it was 10 to 100 nM.
Turning to `COc1cc(-c2cnn3cc(C(C)(C)S(C)(=O)=O)ccc23)cc(OC(F)F)c1C(=O)N[C@@H]1C[C@@H]1F` [Cpd 246, 2-(difluoromethoxy)-N-[(1R,2S)-2-fluorocyclopropyl]-6-methoxy-4-[6-(1-methyl-1-methylsulfonyl-ethyl)pyrazolo[1,5-a]pyridin-3-yl]benzamide], the IC50 was more than 500 nM against SIK1, more than 500 nM at SIK2 and 10 to 100 nM against SIK3.
Consider `COc1cc(-c2cnc3cc(C(C)(C)C#N)ccn23)cc(OC(F)F)c1C(=O)N1CC(O)(C(F)(F)F)C1` [Cpd 75, 2-[3-[3-(difluoromethoxy)-4-[3-hydroxy-3-(trifluoromethyl)azetidine-1-carbonyl]-5-methoxy-phenyl]imidazo[1,2-a]pyridin-7-yl]-2-methyl-propanenitrile], for which the results for the half-inhibitory concentration (IC50) against SIK1, at SIK2 and against SIK3 were more than 500 nM, 100 to 500 nM and 0.01 to 10 nM, respectively.
With `COc1cc(-c2cnc3cc(C(C)(C)C#N)ccn23)cc(OC(F)F)c1C(=O)NC1(C(C)C)CC1` [Cpd 80, 4-[7-(1-cyano-1-methyl-ethyl)imidazo[1,2-a]pyridin-3-yl]-2-(difluoromethoxy)-N-(1-isopropylcyclopropyl)-6-methoxy-benzamide], the IC50 on SIK1, against SIK2 and on SIK3 was more than 500 nM throughout.
As for `COc1cc(-c2cnc3cc(C4(CO)CC4)ccn23)cc(OC(F)F)c1C(=O)NC1CC1` [Cpd 115, N-cyclopropyl-2-(difluoromethoxy)-4-[7-[1-(hydroxymethyl)cyclopropyl]imidazo[1,2-a]pyridin-3-yl]-6-methoxy-benzamide], the results for the 50% inhibitory concentration (IC50) on SIK1, against SIK2 and on SIK3 were 100 to 500 nM, 10 to 100 nM and 0.01 to 10 nM, respectively.
For the compound `COc1cc(-c2cnc3cc(C(C)(C)C#N)ccn23)cc(OC(F)F)c1C(=O)N1CCOCC1` [Cpd 48, 2-[3-[3-(difluoromethoxy)-5-methoxy-4-(morpholine-4-carbonyl)phenyl]imidazo[1,2-a]pyridin-7-yl]-2-methyl-propanenitrile], the IC50 against SIK1, against SIK2 and against SIK3 was more than 500 nM in each case.
As to `CCC(O)C(C)(C)c1ccn2c(-c3cc(OC)c(C(=O)NC4CC4)c(OC(F)F)c3)cnc2c1` (stereo not drawn) [Cpd 201, N-cyclopropyl-2-(difluoromethoxy)-4-[7-(2-hydroxy-1,1-dimethyl-butyl)imidazo[1,2-a]pyridin-3-yl]-6-methoxy-benzamide], the IC50 against SIK1 was more than 500 nM; on SIK2, more than 500 nM; at SIK3 it was 10 to 100 nM.
`COc1cc(-c2cnc3cc(C4CCN4C)ccn23)cc(OC(F)F)c1C(=O)NC1CC1` (stereo not drawn) [Cpd 204, N-cyclopropyl-2-(difluoromethoxy)-6-methoxy-4-[7-(1-methylazetidin-2-yl)imidazo[1,2-a]pyridin-3-yl]benzamide]: the IC50 against SIK1 is more than 500 nM; at SIK2, more than 500 nM; at SIK3, 10 to 100 nM.
In the case of `COc1cc(-c2cnc3cc(C(C)(C)O)ncn23)cc(OC(F)F)c1C(=O)NC1CC1` [Cpd 119, N-cyclopropyl-2-(difluoromethoxy)-4-[7-(1-hydroxy-1-methyl-ethyl)imidazo[1,2-c]pyrimidin-3-yl]-6-methoxy-benzamide], the half-inhibitory concentration (IC50) against SIK1 is more than 500 nM; against SIK2, more than 500 nM; against SIK3, 100 to 500 nM.
`COCCOc1cc(-c2cnn3cc(C(C)(C)C#N)ccc23)cc(OC)c1C(=O)NC1CC1` [Cpd 260, 4-[6-(1-cyano-1-methyl-ethyl)pyrazolo[1,5-a]pyridin-3-yl]-N-cyclopropyl-2-methoxy-6-(2-methoxyethoxy)benzamide]: the values for the IC50 against SIK1, at SIK2 and at SIK3 were more than 500 nM, more than 500 nM and 100 to 500 nM, respectively.
For the compound `COc1cc(-c2cnn3cc(C(C)(C)OCCO)ccc23)cc(OC(F)F)c1C(=O)NC1CC1` [Cpd 239, N-cyclopropyl-2-(difluoromethoxy)-4-[6-[1-(2-hydroxyethoxy)-1-methyl-ethyl]pyrazolo[1,5-a]pyridin-3-yl]-6-methoxy-benzamide], the IC50 is more than 500 nM against SIK1, more than 500 nM against SIK2 and 10 to 100 nM against SIK3.
For `COc1cc(-c2cnc3cc(C(C)(C)C#N)ccn23)cc(OC(F)F)c1C(=O)N1CC2(COC2)C1` [Cpd 51, 2-[3-[3-(difluoromethoxy)-5-methoxy-4-(2-oxa-6-azaspiro[3.3]heptane-6-carbonyl)phenyl]imidazo[1,2-a]pyridin-7-yl]-2-methyl-propanenitrile], the results for the half-inhibitory concentration (IC50) on SIK1, against SIK2 and on SIK3 were more than 500 nM, more than 500 nM and 10 to 100 nM, respectively.
Take `COc1cc(-c2cnc3cc(C4CCCN4C(=O)OC(C)(C)C)ccn23)cc(OC(F)F)c1C(=O)NC1CC1` (stereo not drawn) [Cpd 180, tert-butyl 2-[3-[4-(cyclopropylcarbamoyl)-3-(difluoromethoxy)-5-methoxy-phenyl]imidazo[1,2-a]pyridin-7-yl]pyrrolidine-1-carboxylate]: the IC50 was 100 to 500 nM at SIK1, 100 to 500 nM on SIK2 and 10 to 100 nM against SIK3.
For the compound `COc1cc(-c2cnc3cc(C(C)(C)C#N)ccn23)cc(OC(F)F)c1C(=O)NC(C1CC1)C(F)(F)F` (stereo not drawn) [Cpd 100, 4-[7-(1-cyano-1-methyl-ethyl)imidazo[1,2-a]pyridin-3-yl]-N-(1-cyclopropyl-2,2,2-trifluoro-ethyl)-2-(difluoromethoxy)-6-methoxy-benzamide], the half-inhibitory concentration (IC50) against SIK1, at SIK2 and at SIK3 was more than 500 nM throughout.
